1 compound from US20210246159A1, “NOVEL FORM OF BARDOXOLONE METHYL” (Johnson Matthey Public Limited Company, priority 2020, published 2021) can be followed below.

This series can be described thus: Storage stability of the crystalline form at 30° C. / 65% RH in a capped vial. Format: physicochemical. The text has this: The crystalline formic acid solvate of bardoxolone methyl; more particularly, Form A, can be dried by any conventional methods known to one of ordinary skill in the art. In one embodiment, it is desirable to avoid extensive drying of the crystalline formic acid solvate of bardoxolone methyl; more particularly, Form A, to avoid the potential for desolvation. In one embodiment, it is desirable to store the crystalline formic acid solvate of bardoxolone methyl; more particularly, Form A, away from high heat and humidity. Form A remains stable at 30° C. at 65% RH for at least 5 days in a capped vial.

As to `COC(=O)[C@]12CCC(C)(C)C[C@H]1[C@H]1C(=O)C=C3[C@@]4(C)C=C(C#N)C(=O)C(C)(C)[C@@H]4CC[C@@]3(C)[C@]1(C)CC2` [Form A, di-formic acid solvate of bardoxolone methyl], the “time Form A remains stable” value is “at least 5 days”.
